In PubChem BioAssay AID463206 (Broad Institute, 2010):
Activity calls are given as the source filed them.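 Rule for the calls: active = caspase luminescence falls with dose and the half-maximal concentration AC50 from the fitted curve is at or below a set limit; inconclusive = flat fit at 30 to 70% signal loss, or invalid fit; inactive = AC50 above the limit, or signal rises instead.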

Test system: INS-1E cytokine-induced caspase-3/7, Caspase-Glo luminescence, 48 h
Experiment: suppression of cytokine-driven beta-cell apoptosis – INS-1E rat cells, luminescence, orthogonal assay for beta-cell apoptosis protection project, dose response (AID 463206)

SMILES | AC50
c1ccc(-c2cc(-c3ccccc3)[n+](-c3ccccc3)c(-c3ccccc3)c2)cc1 | > 26 µM (inactive)
COC(=O)c1ccc2c(=O)n(-c3ccccc3)c(SCN3C(=O)c4ccccc4C3=O)nc2c1 | > 26 µM (inactive)
COc1ccc2c(c1)C(=O)[C@H](O)[C@@H](c1ccc(OC)c(Br)c1)O2 | > 26 µM (inactive)
COc1cccc(/C=N/Nc2cc(N3CCOCC3)ncn2)c1O | > 26 µM (inactive)
Cc1cc(C)n(-c2nc(NCCCO)c3c4c(sc3n2)CCCC4)n1 | > 26 µM (inactive)
CCCCCCCCCCCCn1ccc(=N)cc1 | > 26 µM (inactive)
Cc1cc(/C=C2/SC(=S)N(c3ccc([N+](=O)[O-])cc3)C2=O)c(C)n1-c1cccnc1 | > 26 µM (inactive)
CCS(=O)(=O)c1ncc(Cl)c(C(=O)Nc2ccc(S(=O)(=O)N3CCC(C)CC3)cc2)n1 | > 26 µM (inactive)
CCCN(CCC)c1nc(-c2ccccn2)nc2ccccc12 | > 26 µM (inactive)
COc1ccc(C[C@H]2CN3C(=NC[C@@H]3Cc3ccccc3)N2CCNC(=O)CCC2CCCCC2)cc1 | > 26 µM (inactive)
N#C/C(=N\Nc1ccc(Cl)cc1)C(=O)c1ccccc1 | > 26 µM (inactive)
CCC(CNc1cc(OC)cc2cccnc12)NC1CCCCC1 (stereo not drawn) | > 26 µM (inactive)
CN(C1=C(NC(=O)c2ccccc2)C(=O)c2ccccc2C1=O)C1CCS(=O)(=O)C1 (stereo not drawn) | > 26 µM (inactive)
O=C(Oc1c(CN2CCOCC2)cc(Cl)c2cccnc12)c1ccccc1Br | > 26 µM (inactive)
COc1ccc2cc(C(=O)N/N=C/c3sc4ccccc4c3O)ccc2c1 | > 26 µM (inactive)
C/C(=N\NC(=O)COc1ccccc1-c1ccccc1)c1ccccn1 | > 26 µM (inactive)
CC(Nc1ncnc2ccccc12)c1ccccc1 (stereo not drawn) | > 26 µM (inactive)
Oc1c(C(c2ccccc2Cl)N2CCCC2)ccc2cccnc12 (stereo not drawn) | > 26 µM (inactive)
O=C(NCCOCCOCCNC(=O)c1cccnc1)c1cccnc1 | > 26 µM (inactive)
Cc1nc(N/N=C/c2ccccn2)sc1C | > 26 µM (inactive)
Cc1ccc(N=Cc2c(C)[nH]n(-c3nc4ccccc4[nH]3)c2=O)cc1 | > 26 µM (inactive)
COc1ccc2c(c1)C(=O)[C@@H](O)[C@H](c1ccc(OC)c(Br)c1)O2 | > 26 µM (inactive)
Cc1[nH]n(C2=NCCS2)c(=O)c1N=Nc1cccc(C(F)(F)F)c1 | > 26 µM (inactive)

SMILES | AC50
COC(=O)c1c(C)oc2ccc(N(C(=O)c3ccncc3)S(=O)(=O)c3ccc(C)cc3C)cc12 | > 26 µM (inactive)
O=[N+]([O-])c1ccc(NC(=S)NCCc2ccc(F)cc2)cc1 | > 26 µM (inactive)
Cc1c(Cl)c([N+](=O)[O-])nn1Cc1ccc(C(=O)N/N=C\c2cc(Cl)ccc2O)o1 | > 26 µM (inactive)
CC(C)(C)c1cc(C(=O)N/N=C/c2ccc([N+](=O)[O-])s2)n[nH]1 | > 26 µM (inactive)
O=[N+]([O-])c1ccc(N2CCN(CCOc3nonc3-c3ccccc3)CC2)c(Cl)c1 | > 26 µM (inactive)
c1ccc(N2CCN(c3nc(-c4ccccn4)nc4ccccc34)CC2)cc1 | > 26 µM (inactive)
Cc1ccc(-c2c[n+]3c(n2-c2ccccc2)SCC3)cc1 | > 26 µM (inactive)
Cc1[nH]n(-c2ccccc2)c(=O)c1/C=N/NC(=O)COc1ccccc1[N+](=O)[O-] | > 26 µM (inactive)
Cc1sc2ncnc(NCC(C)(C)N3CCOCC3)c2c1C | > 26 µM (inactive)
Oc1c(CN2CCOCC2)cc(COCc2ccccc2)c2cccnc12 | > 26 µM (inactive)
CCCC(=O)NC(c1ccc(Cl)cc1)c1ccc2cccnc2c1O (stereo not drawn) | > 26 µM (inactive)
OCCCNc1c2ccccc2nc2ccccc12 | 7.37 µM
O=c1cc(N2CCN(c3cccc(Cl)c3)CC2)[nH]c(=O)n1C1CCCCC1 | > 26 µM (inactive)
O=C(Nc1nc2ccc([N+](=O)[O-])cc2s1)c1ccc(S(=O)(=O)N2CCCc3ccccc32)cc1 | > 26 µM (inactive)
CCC1CCCCN1C(=O)c1cc(COc2ccc(-n3cncn3)cc2)on1 (stereo not drawn) | > 26 µM (inactive)
CC(O)CNc1nc2sc3c(c2c(=O)n1Cc1ccco1)CCCCC3 (stereo not drawn) | > 12 µM (inactive)
NS(=O)(=O)c1ccc(N=Nc2ccc(O)c3ncccc23)cc1 | > 26 µM (inactive)
COc1ccc(NS(=O)(=O)c2ccc(N3CCOCC3)c(N)c2)cc1 | > 26 µM (inactive)
C(=N\Nc1nncc2ccccc12)/c1ccccn1 | > 26 µM (inactive)
NC1=C(Br)C(=O)c2ccccc2C1=O | > 26 µM (inactive)
CCCCCCOC(=O)C[N+](C)(C)CCOC1CC2CCC1(C)C2(C)C (stereo not drawn) | > 26 µM (inactive)
O=C(NC(NC(=S)Nc1ccc(Cl)cc1Cl)C(Cl)(Cl)Cl)c1cccc([N+](=O)[O-])c1 (stereo not drawn) | > 26 µM (inactive)
Cc1ccc(C2C(C=Nc3c(C)n(C)n(-c4ccccc4)c3=O)=C(c3ccccc3)Oc3ccccc32)cc1 (stereo not drawn) | > 26 µM (inactive)

SMILES | AC50
CCCc1cc(=O)n2[nH]cc(-c3ccc(Cl)cc3)c2n1 | > 26 µM (inactive)
O=C(Nc1ccc(-c2csc(Nc3cccc(C(F)(F)F)c3)n2)cc1)c1cc([N+](=O)[O-])cc(C(F)(F)F)c1 | > 26 µM (inactive)
CC1=NNC(=O)/C1=C\c1cn(-c2ccccc2)nc1-c1ccccc1 | > 26 µM (inactive)
CC[C@@H]1C/C=C\Cc2ccccc2[C@H](C(=O)C[C@@H](O)CC(C)=O)OC1=O | > 26 µM (inactive)
CCCCCc1ccc(OCCCC[n+]2cccc(C)c2)c(CCCCC)c1 | > 26 µM (inactive)
O=C(N/N=C/c1ccccc1)c1c(O)c2ccccc2[nH]c1=O | > 26 µM (inactive)
O=C1C=C(N2CCCCC2)c2ccccc2C1=O | > 26 µM (inactive)
COc1cccc(/C=N/Nc2snc(SC)c2C#N)c1O | > 26 µM (inactive)
CC(C)c1ccc(/C=C(\c2nc3ccccc3[nH]2)S(=O)(=O)c2ccccc2)cc1 | > 26 µM (inactive)
COc1ccc2[nH]c(C(=O)N/N=C/c3ccc(O)cc3O)cc2c1 | > 26 µM (inactive)
Cc1cc(C)nc(N/N=C/c2cc(Br)ccc2O)n1 | > 26 µM (inactive)
CCN1/C(=C/C=C/c2sc3ccccc3[n+]2CC)Sc2ccccc21 | > 26 µM (inactive)
CC(C)c1ccccc1-n1c(SCC(=O)N2CCc3ccccc3C2)nc2ccccc2c1=O | > 26 µM (inactive)
Oc1c(CN2CCN(c3ccccc3)CC2)cc(Br)c2cccnc12 | > 26 µM (inactive)
S=C(Nc1ccc(Nc2ccccc2)cc1)Nc1ccccn1 | > 26 µM (inactive)
COc1ccc(-c2cc(-c3nc4ccccn4c3NCc3ccccc3)ccc2OC)cc1 | > 26 µM (inactive)
Cc1nc2c(-c3ccc(Cl)cc3)c(C)[nH]n2c(=O)c1Cc1ccccc1 | > 26 µM (inactive)
Cn1ncc2c(N3CCN(c4ccc(Cl)c(Cl)c4)CC3)ncnc21 | > 26 µM (inactive)
COc1ccc(NC(=O)c2c(Nc3ccccc3)sc(C(=O)c3ccc(F)cc3)c2N)cc1 | > 26 µM (inactive)
COc1ccc(OC)c2[nH]c(C(=O)N/N=C/c3ccccc3O)cc12 | > 26 µM (inactive)
Cc1cccc(/C=N\NC(=O)c2ccc(Cl)cc2)c1O | > 26 µM (inactive)
C#CCOCCOCCOCCNc1nc(N2CCN(C(=O)CCCCCCCCCCNC(=O)[C@@H](CCSC)n3cc(CCO)nn3)CC2)nc(N2CCN(C(=O)CCCCCCCCCCNC(=O)[C@H]([C@@H](C)CC)n3cc(CCCCCN)nn3)CC2)n1 | > 26 µM (inactive)
